The target in one data set is T1, PPARγ (Homo sapiens, UniProt P37231).
T1 construct: expressed in transfected cells; host or cells: COS-7
T1 sequence (P37231 238-503 limits assumed): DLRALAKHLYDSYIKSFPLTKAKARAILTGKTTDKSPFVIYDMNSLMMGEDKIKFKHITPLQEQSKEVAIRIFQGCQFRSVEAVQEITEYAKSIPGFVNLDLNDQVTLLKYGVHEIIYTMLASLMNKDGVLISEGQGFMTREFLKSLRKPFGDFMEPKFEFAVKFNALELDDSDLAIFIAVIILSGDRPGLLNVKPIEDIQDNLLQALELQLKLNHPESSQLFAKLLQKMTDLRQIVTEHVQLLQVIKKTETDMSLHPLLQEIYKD
Kind of data set: GAL4 hybrid reporter gene method, PPARγ agonistic activity. Type of data set: cell-based.

The nature of data set [1]: Metabolic stability in human liver microsomes. Type of data set: in vitro ADME. The following applies: human liver microsomes 0.75 mg/mL, NADPH. The method, then:
A solution of the compound in acetonitrile at a concentration of 500 μM was prepared and diluted in 0.1 M potassium phosphate solution to obtain a 1.5 μM drug working solution. The drug working solution was co-incubated with a human liver microsome working solution at a final concentration of 0.75 mg/mL and a NADPH solution (at a final concentration of 550 μM), and the incubation was terminated by adding an acetonitrile solution at 0 min, 15 min, 30 min, 45 min, and 60 min, respectively. The remaining amount of the compound remained in the system at each time point was detected by using LC/MS, the absolute value k of the slope was measured by plotting the natural logarithm of the percentage of the remaining amount of the compound over time, and the calculation was performed according to the formula: T1/2 (half-life)=ln2/k=0.693/k.

The target in another data set is T2, PPARα (Homo sapiens, UniProt Q07869).
T2 construct: expressed in transfected cells; host or cells: COS-7
T2 sequence (Q07869 239-466 limits assumed): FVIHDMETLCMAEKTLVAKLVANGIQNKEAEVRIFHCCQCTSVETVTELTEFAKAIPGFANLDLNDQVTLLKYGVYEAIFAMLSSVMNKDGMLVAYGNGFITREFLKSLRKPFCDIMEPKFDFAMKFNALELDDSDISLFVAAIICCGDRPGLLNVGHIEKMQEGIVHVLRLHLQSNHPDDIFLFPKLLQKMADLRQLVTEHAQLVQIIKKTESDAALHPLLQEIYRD
Description: GAL4 hybrid reporter gene method, PPARα agonistic activity. Particulars: Cos-7 cells, Gal4-PPARα (LBD); GW7647 10 nM = 100%; 16 h. Format: cell-based. A general note: A reporter such as luciferase makes a cellular process visible.

For data set [2] the following is noted: NCT02704403; cited from earlier work.
The target of a further data set is T3, PPARδ (Homo sapiens, UniProt Q03181).
T3 construct: expressed in transfected cells; host or cells: COS-7
T3 sequence (Q03181 211-439 limits assumed): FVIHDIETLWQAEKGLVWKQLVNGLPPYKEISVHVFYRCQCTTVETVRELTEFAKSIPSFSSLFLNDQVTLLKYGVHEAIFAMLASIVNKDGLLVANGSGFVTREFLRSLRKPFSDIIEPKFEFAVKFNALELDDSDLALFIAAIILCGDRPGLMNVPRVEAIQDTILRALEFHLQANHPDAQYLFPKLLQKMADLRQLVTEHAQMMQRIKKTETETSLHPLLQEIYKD
Description: GAL4 hybrid reporter gene method, PPARδ agonistic activity. Type of data set: cell-based.

Where [3] appears, read: Cos-7 cells, Gal4-PPARγ (LBD), Rosiglitazone 1 μM = 100%, 16 h.
Setting [4] is: Cos-7 cells, Gal4-PPARδ (LBD), GW501516 10 nM = 100%, 16 h.

Read-outs that look alike come from different tables or passages of the source.

Consider 8 molecules from US20250136555A1 (HARBIN MEDISAN PHARMACEUTICAL CO., LTD., priority 2022, published 2025).

The EC50 is the concentration giving half of the maximal effect. Read a low EC50 as an effect from little substance. The term CLint scaled denotes the rate of metabolic loss divided by the concentration. Lower therefore signals greater metabolic stability. In general, half-life refers to how long it takes for the measured level to halve. Higher therefore signals slow decline.

Description for PPARα: (§1) Cos-7 cells (African green monkey kidney fibroblasts, commonly used tool cells) were cultured in a 10-cm cell culture dish with a DMEM complete medium containing 10% fetal bovine serum. When growing at a density of about 70%, the cells were ready for transfection. […] The working solution described above was then combined with 8 mL of the DMEM complete medium, and the mixture was added to the cell culture dish for cell transfection. After 4 h of transfection, the cells were digested, resuspended, and seeded into a 96-well plate at 25,000 cells/well. […] 10 μL of a reporter gene detection solution (purchased from Shanghai Beyotime Biological Tech. Co., Ltd.) was added. After the resulting solution was mixed and reacted, biological fluorescence was detected by using a multifunctional microplate reader, and corresponding half maximal effective concentration (EC50) values were calculated according to the detection values. […] Transfection working solutions for different nuclear receptors were prepared and added into COS-7 cells. The preparation method for the transfection working solution was as follows: the constructed pBIND-Gal4-PPARα (LBD) (or pBIND-Gal4-PPARδ (LBD) plasmid or pBIND-Gal4-PPARγ (LBD) plasmid or pBIND-Gal4-RARα (LBD) plasmid or pBIND-Gal4-RARγ (LBD) plasmid or pBIND-Gal4-RARβ (LBD) plasmid or pBIND-Gal4-RORα (LBD) plasmid or pBIND-Gal4-RORγ (LBD) plasmid or pBIND-Gal4-RORβ (LBD) plasmid or pBIND-Gal4-FXR (LBD) plasmid or pBIND-Gal4-RXRα.
Description for PPARγ: as §1
Description for PPARδ: as §1

At PPARγ (setting [3]), `CSc1ccc(C(=O)/C=C/c2cc(C)c(OC(C)(C)C(=O)O)c(C)c2)cc1` [GFT505, Elafibranor, reference compound] gave an EC50 of 1840 nM. In data set [1], this molecule had a CLint scaled of 116 mL/min/kg and a half-life of 15 min. In addition, a half-maximal response on PPARα (EC50) required 820 nM. Also, the “interim analysis result of phase III clinical trial against NASH” value in data set [2] was “substantially ineffective”.
Take `Cc1cc(CN2C(=O)CN(c3ccc(-c4ccccc4)cc3)C2=O)cc(C)c1OC(C)(C)C(=O)O` [Compound 41]: on PPARδ (setting [4]), a half-maximal response (EC50) required 6.2 nM and the “PPARδ EC50 (nM)” value is “low nanomolar levels”. The molecule further came in with an EC50 on PPARγ (setting [3]) of 630 nM. In addition, at PPARα, the EC50 is 0.9 nM and the “PPARα EC50 (nM)” value was “low nanomolar levels”.
Consider `COc1cc(CN2C(=O)CN(c3ccc(C(F)(F)F)cc3)C2=O)ccc1OC(C)(C)C(=O)O` [Compound 97], for which the EC50 at PPARδ is 1400 nM; on PPARγ, 2890 nM; on PPARα, 209 nM.
On to `Cc1cc(CN2C(=O)N(c3ccc(C(F)(F)F)cc3)C(=O)C2(C)C)cc(C)c1OC(C)(C)C(=O)O` [Compound 83], for which the figures for the EC50 at PPARδ (setting [4]), on PPARγ (setting [3]) and at PPARα were 6.5 nM, 1680 nM and 79.3 nM, respectively.
As to `COc1cc(CN2C(=O)CN(c3ccc(C(F)(F)F)cc3)C2=O)cc(Cl)c1OC(C)(C)C(=O)O` [Compound 73, 2-(2-Chloro-4-((2,5-dioxo-3-(4-(trifluoromethyl)phenyl)imidazolin-1-yl)methyl)-6-methoxyphenoxy)-2-methylpropionic Acid], the results for the EC50 on PPARδ, on PPARγ and on PPARα were 31 nM, 2120 nM and 2.4 nM, respectively.
As for `Cc1cc(CN2C(=O)CN(c3ccc(F)c(Cl)c3)C2=O)cc(C)c1OC(C)(C)C(=O)O` [Compound 105], the EC50 stood at 40.5 nM at PPARδ, 165 nM on PPARγ and 21.9 nM on PPARα.
As for `Cc1cc(CN2C(=O)CN(c3ccccc3)C2=O)cc(C)c1OC(C)(C)C(=O)O` [Compound 35, 2-(4-((2,5-Dioxo-3-phenylimidazolin-1-yl)methyl)-2,6-dimethylphenoxy)-2-methylpropionic Acid], the EC50 on PPARδ (setting [4]) was 90.5 nM; on PPARγ (setting [3]) it was 2100 nM; at PPARα it was 166 nM.
For `Cc1cc(CN2C(=O)CN(c3ccc(C(F)(F)F)cc3)C2=O)ccc1OC(C)(C)C(=O)O` [Compound 57, 2-(4-((2,5-Dioxo-3-(4-(trifluoromethyl)phenyl)imidazolin-1-yl)methyl)-2-(methyl)phenoxy)-2-methylpropionic Acid], the EC50 at PPARδ (setting [4]) is 19.2 nM; on PPARγ (setting [3]) it was 2720 nM; on PPARα, 46.7 nM.
